{
  "source": "patent US20240199964A1",
  "about": "“COMPOUNDS FOR MARKING LIQUIDS” (KUANTAG NANOTEKNOLOJILER GELISTIRME VE URETIM A.S., priority 2022, published 2024)",
  "type_in_all_cases": "physicochemical",
  "key": {"[1]": {"assay": "absorbance spectroscopy of marker in xylene solution", "conditions": "for Ab. max.: xylene solution having 0.5 ppm marker material, experimental; for Ab. max. (estimated): not experimental, estimated based on the values of formulas (II) and (III)", "from_the_text": "(§1) Chemical structures of other examples of anthrapyridone marker compounds derived based on the general formula (I) may be seen below. […] Table 1 identifies side groups of each anthrapyridone compound based on the general formula (I) and their absorption and emission characteristics. In Table 1, only the absorbance maximum and emission maximum values for the anthrapyridone compound markers with formula (II) and formula (III) are experimental. In the spectroscopic measurements, each test sample includes a xylene solution having 0.5 ppm marker material. For emission measurements 543 and 551 nm excitation wavelength are used, respectively. The absorbance maximum and emission maximum values of the formulas (IV)-(X) are not experimental values. These values are estimated values based on the values of the formulas (II) and (III)."}, "[2]": {"assay": "fluorescence emission spectroscopy of marker in xylene solution", "conditions": "for Em. max.: xylene solution having 0.5 ppm marker material, excitation 543 nm for (II), 551 nm for (III), experimental; for Em. max. (estimated): not experimental, estimated based on the values of formulas (II) and (III)", "from_the_text": "as §1"}, "[3]": {"assay": "absorbance spectrum (UV-Vis) of marker in diesel fuel, FIG. 2A", "conditions": "diesel solution, about 0.5 ppm marker material", "from_the_text": "FIG. 2A is a graph of an absorbance spectrum 10A of the marker material (the anthrapyridone compound of formula (III)) in diesel fuel. The absorbance spectrum 10A includes two absorbance maximums 11A and 11B at about 520 nm and about 550 nm wavelength values of the visible radiation range, respectively. A diesel solution having about 0.5 ppm marker material concentration may be used as a test sample for this spectral analysis. The absorbance spectroscopy instrument may be any type of absorbance spectroscopy instrument that is able to take absorbance spectrum in visible radiation region, i.e., 400-600 nm.\nThe absorbance spectrum shown in FIG. 2A is taken by a UV-Vis Spectroscopy instrument from Thermo Scientific Co in a test range of about 400-650 nm. The fluorescence spectrum shown in FIG. 2B is taken by a fluorescence spectroscopy instrument from Edinburgh Co."}},
  "data": [
    {"molecule": "Cc1ccc(Nc2ccc3c4c(cc(=O)n3C)-c3ccccc3C(=O)c24)cc1", "note": "[formula (II), Solvent Red 52]", "values": [
      {"measurement": "Ab. max.", "setting": "[1]", "value": 543, "unit": "nm"},
      {"measurement": "Em. max.", "setting": "[2]", "value": "no emission"}
    ]},
    {"molecule": "CCCCC(CC)CNc1ccc2c3c(cc(=O)n2CC(CC)CCCC)-c2ccccc2C(=O)c13", "note": "(centres unmarked) [formula (VI)]", "values": [
      {"measurement": "Ab. max. (estimated)", "setting": "[1]", "value": "540-560 nm"},
      {"measurement": "Em. max. (estimated)", "setting": "[2]", "value": "575-600 nm"}
    ]},
    {"molecule": "Cn1c(=O)cc2c3c(c(NCc4ccccc4)ccc31)C(=O)c1ccccc1-2", "note": "[formula (IV), Solvent Red 150]", "values": [
      {"measurement": "Ab. max. (estimated)", "setting": "[1]", "value": "540-560 nm"},
      {"measurement": "Em. max. (estimated)", "setting": "[2]", "value": "575-600 nm"}
    ]},
    {"molecule": "O=C1c2ccccc2-c2cc(=O)n(Cc3ccccc3)c3ccc(NCc4ccccc4)c1c23", "note": "[formula (X)]", "values": [
      {"measurement": "Ab. max. (estimated)", "setting": "[1]", "value": "540-560 nm"},
      {"measurement": "Em. max. (estimated)", "setting": "[2]", "value": "575-600 nm"}
    ]},
    {"molecule": "CNc1ccc2c3c(cc(=O)n2C)-c2ccccc2C(=O)c13", "note": "[formula (V)]", "values": [
      {"measurement": "Ab. max. (estimated)", "setting": "[1]", "value": "540-560 nm"},
      {"measurement": "Em. max. (estimated)", "setting": "[2]", "value": "575-600 nm"}
    ]},
    {"molecule": "Cn1c(=O)cc2c3c(c(NC4CCCCC4)ccc31)C(=O)c1ccccc1-2", "note": "[formula (III), Solvent Red 149]", "values": [
      {"measurement": "absorbance maximum 11A", "setting": "[3]", "value": "about 520 nm"},
      {"measurement": "absorbance maximum 11B", "setting": "[3]", "value": "about 550 nm"},
      {"measurement": "Ab. max.", "setting": "[1]", "value": 551, "unit": "nm"},
      {"measurement": "Em. max.", "setting": "[2]", "value": 580, "unit": "nm"}
    ]},
    {"molecule": "CCCCCCCCCCCNc1ccc2c3c(cc(=O)n2C)-c2ccccc2C(=O)c13", "note": "[formula (IX)]", "values": [
      {"measurement": "Ab. max. (estimated)", "setting": "[1]", "value": "540-560 nm"},
      {"measurement": "Em. max. (estimated)", "setting": "[2]", "value": "575-600 nm"}
    ]},
    {"molecule": "O=C1c2ccccc2-c2cc(=O)n(C3CCCCC3)c3ccc(NC4CCCCC4)c1c23", "note": "[formula (VIII)]", "values": [
      {"measurement": "Ab. max. (estimated)", "setting": "[1]", "value": "540-560 nm"},
      {"measurement": "Em. max. (estimated)", "setting": "[2]", "value": "575-600 nm"}
    ]},
    {"molecule": "CCCCC(CC)CNc1ccc2c3c(cc(=O)n2C)-c2ccccc2C(=O)c13", "note": "(centres unmarked) [formula (VII)]", "values": [
      {"measurement": "Ab. max. (estimated)", "setting": "[1]", "value": "540-560 nm"},
      {"measurement": "Em. max. (estimated)", "setting": "[2]", "value": "575-600 nm"}
    ]}
  ]
}
